Experimental findings from the OligoGym collection are described below.

After the bases stand the sugars from the 5' end (letter, count) and the backbone: PS all phosphorothioate, else s phosphorothioate and o phosphodiester by linkage. Methylation of C is not given here. e = 2'-O-(2-methoxyethyl) (MOE); k = constrained ethyl (cEt); d = 2'-deoxy (DNA); m = 2'-O-methyl

The data set addresses HSD17B13. To be noted: ASO, HepaRG.

Take “AGAGGATAGTCCATGC (sugars k3 d9 k3 e1, PS)”: the target mRNA inhibition was found to be 0% (0.02 µM); 3% (0.078 µM); 40% (0.313 µM); 78% (1 µM); 50% (1.25 µM); 44% (5 µM). As for GGATGTTAGGACCCAG (sugars k3 d10 k3, PS), the target mRNA inhibition reads like this: (0.02 µM) 4%; (0.078 µM) 18%; (0.313 µM) 69%; (1 µM) 81%; (1.25 µM) 89%; (5 µM) 93%. As to GCTTAGTTCTTAATTA (sugars k3 d10 k3, PS), the target mRNA inhibition (1 µM) was 28%.

For TAAAATATGTCCAGGT (sugars k3 d10 k3, PS), for the setting “1 µM”, the target mRNA inhibition was 75%.

Under “1 µM”, CGACTTCATCTGTCTC (sugars k3 d10 k3, PS) gave a target mRNA inhibition of 19%. In the case of CTGTAGGACTCTGCTC (sugars k3 d10 k3, PS), the target mRNA inhibition (1 µM) came out at 48%. On the same count and under the same terms, the same measure for TGGAACAATATGGGAT (sugars k3 d10 k3, PS): 46%; for ACTCCAAGTAGGAGTA (sugars k3 d10 k3, PS): 0%.

For CATAGACATGTGTTCA (sugars k3 d10 k3, PS), the target mRNA inhibition (1 µM) turned out to be 52%. In turn, TATACTTTTCCGTCTC (sugars k3 d10 k3, PS) gave a target mRNA inhibition (0.02 µM) of 0%; a target mRNA inhibition (0.078 µM) of 22%; a target mRNA inhibition (0.313 µM) of 44%; a target mRNA inhibition (1 µM) of 71%; a target mRNA inhibition (1.25 µM) of 79%; a target mRNA inhibition (5 µM) of 83%. ATGAGGTAAGGAATCC (sugars k3 d10 k3, PS) displayed a target mRNA inhibition (1 µM) of 0%.

Regarding ATAGAGGGTCCACTTT (sugars k3 d10 k3, PS), the target mRNA inhibition (1 µM) was determined as 21%.

Regarding GTAGTCTGCCTGCCTA (sugars k3 d10 k3, PS), where the note is “1 µM”, the target mRNA inhibition is 68%. As for “AAATATGTCCAGGTTG (sugars k3 d9 k3 e1, PS)”, the target mRNA inhibition by setting is: (0.02 µM) 3%; (0.078 µM) 0%; (0.313 µM) 16%; (1 µM) 74%; (1.25 µM) 60%; (5 µM) 88%. Under “1 µM”, TAAATCCAAATCACTC (sugars k3 d10 k3, PS) yielded a target mRNA inhibition of 39%. Still for that read-out and setting: the value for GAGGCTAGGGAAATCT (sugars k3 d10 k3, PS) was 56%. Still for that read-out and setting: the same measure for GGGAAATTGTTGCTGT (sugars k3 d10 k3, PS): 42%; for CCAGTAAAAAATTGGT (sugars k3 d10 k3, PS): 23%; for GTAATTAATCTTGTTC (sugars k3 d10 k3, PS): 52%. Still for that read-out and setting: the value for AAATAGAGTCGGTCAC (sugars k3 d10 k3, PS) was 59%; that for TTCTCAAGGAGTACTT (sugars k3 d10 k3, PS) was 76%. As to TACATTACAGCCTTAG (sugars k3 d10 k3, PS), the target mRNA inhibition stood at 0% (0.02 µM); 2% (0.078 µM); 15% (0.313 µM); 75% (1 µM); 71% (1.25 µM); 85% (5 µM). Sequence “TCTCTTAGCTGTGCAC (sugars k3 d9 k3 e1, PS)” had a target mRNA inhibition (1 µM) of 69%. Consider ATATGTGAAGAGCTGG (sugars k3 d10 k3, PS), for which, under “1 µM”, the target mRNA inhibition was 51%. Turning to CTCCAAGGAGTGCATC (sugars k3 d10 k3, PS), the target mRNA inhibition (1 µM) was 53%. Still for that read-out and setting: the same measure for GCTGAGTGGATTACAT (sugars k3 d10 k3, PS): 44%. On to TGCAGAAATTCACCTT (sugars k3 d10 k3, PS), for which the target mRNA inhibition (1 µM) is 54%.

As for GACAATGACATAGACG (sugars k3 d10 k3, PS), the target mRNA inhibition (1 µM) was 0%. The same measure, in the same setting: the same measure for GATGTTAGGACCCAGT (sugars k3 d10 k3, PS): 64%.

Where the note is “1 µM”, AACAAGAGGATAGTCC (sugars k3 d10 k3, PS) yielded a target mRNA inhibition of 54%. In turn, “GTCGGTCACCTTTCAT (sugars kkdddddddddkekek, PS)” gave a target mRNA inhibition (1 µM) of 57%. The same measure, in the same setting: the same measure for GGACCAGGGAATTTAT (sugars k3 d10 k3, PS): 55%. Regarding GTGTTCTTGTTGATAT (sugars k3 d10 k3, PS), the target mRNA inhibition by setting is: (0.02 µM) 13%; (0.078 µM) 25%; (0.313 µM) 59%; (1 µM) 81%; (1.25 µM) 80%; (5 µM) 93%. Consider CAATACAGGCCATAAT (sugars k3 d10 k3, PS), for which the target mRNA inhibition (1 µM) came out at 0%. Same read-out and setting: the value for AGCATTGATTCGAAAC (sugars k3 d10 k3, PS) was 70%; that for ATGCTACTTGAACAGT (sugars k3 d10 k3, PS) was 47%. Same read-out and setting: the same measure for “CAGAGACATGAGGTTT (sugars k3 d1 m1 d8 k3, PS)”: 61%.

As to AAGGAGCCAGTTATGA (sugars k3 d10 k3, PS), the target mRNA inhibition (1 µM) amounted to 57%. Same read-out and setting: the value for GATCATTCCTGCTAGT (sugars k3 d10 k3, PS) was 35%; that for “AATAGCCAGTACAGTT (sugars k3 d9 k3 e1, PS)” was 61%; that for “CGTTUTGGGCTAATGA (sugars k3 d1 m1 d8 k3, PS)” was 34%. Same read-out and setting: the value for TTAATACGACTTCCTT (sugars k3 d10 k3, PS) was 35%.

TTATAACTGAGCTAGA (sugars k3 d10 k3, PS) displayed a target mRNA inhibition (1 µM) of 8%. For TCAAAGCCTGTTGGAT (sugars k3 d10 k3, PS), the target mRNA inhibition (1 µM) worked out at 35%. For the setting “1 µM”, CTACATGTAAGGTTTT (sugars k3 d10 k3, PS) returned a target mRNA inhibition of 11%. GATTCGAAACTATTCA (sugars k3 d10 k3, PS) yielded a target mRNA inhibition (1 µM) of 57%.

For the sequence GTGTAGAATTGTCTGT (sugars k3 d10 k3, PS), under “1 µM”, the target mRNA inhibition is 42%.

ACCTCTAAGTTAGCCC (sugars k3 d10 k3, PS): under “1 µM”, the target mRNA inhibition came to 28%. GCTTTGAAGACAATAC (sugars k3 d10 k3, PS): the target mRNA inhibition (1 µM) was determined as 42%. Where the note is “1 µM”, “CAGTUTTCCTCATGAT (sugars k3 d1 m1 d8 k3, PS)” returned a target mRNA inhibition of 0%.

The sequence GAAGTTTTTAAGAGGC (sugars k3 d10 k3, PS) came in with a target mRNA inhibition (1 µM) of 64%. CTTAGCTGTGCACTCA (sugars k3 d10 k3, PS) displayed a target mRNA inhibition (1 µM) of 60%. Sequence CGTAGCAAATGTAAGA (sugars k3 d10 k3, PS) yielded a target mRNA inhibition (1 µM) of 0%. Turning to GATGTTCATGGCTTTG (sugars k3 d10 k3, PS), the target mRNA inhibition by setting is: (0.02 µM) 0%; (0.078 µM) 5%; (0.313 µM) 75%; (1 µM) 81%; (1.25 µM) 68%. As for “TTGAATAGCAAGCCAA (sugars k3 d1 m1 d8 k3, PS)”, where the note is “1 µM”, the target mRNA inhibition was 30%. For the sequence “TATTATGTGATTGAGT (sugars k3 d9 k3 e1, PS)”, for the setting “1 µM”, the target mRNA inhibition was determined as 51%.

For the setting “1 µM”, GATTAATCATGGGACA (sugars k3 d10 k3, PS) yielded a target mRNA inhibition of 9%. Sequence AGGCATTAGATGGTAA (sugars k3 d10 k3, PS) displayed a target mRNA inhibition (1 µM) of 51%. Sequence “ATGAGGTTTTGATACC (sugars kkdddddddddkekek, PS)” came in with a target mRNA inhibition (1 µM) of 51%.

For the setting “1 µM”, ATTGATACACCAATGC (sugars k3 d10 k3, PS) registered a target mRNA inhibition of 66%. As to ATAACCTAATAACTAC (sugars k3 d10 k3, PS), the target mRNA inhibition (1 µM) turned out to be 26%. The same measure, in the same setting: the same measure for AGCATTCCATGATTAA (sugars k3 d10 k3, PS): 47%; for CATAGCTAACTCAGGC (sugars k3 d10 k3, PS): 29%.

As for TACGACTTCCTTCTAA (sugars k3 d10 k3, PS), the target mRNA inhibition (1 µM) was 67%. Same read-out and setting: the value for AACCAATTATATGAGG (sugars k3 d10 k3, PS) was 38%. The same measure, in the same setting: the value for “TCCCAACCAAACTTCC (sugars k3 d9 k3 e1, PS)” was 24%.

CCCAAGAGTGGCAGGA (sugars k3 d10 k3, PS) registered a target mRNA inhibition (1 µM) of 29%. The same measure, in the same setting: the value for CTCTATAATAAGGTAA (sugars k3 d10 k3, PS) was 0%; that for TATACAGACTAAGGGA (sugars k3 d10 k3, PS) was 24%. Same read-out and setting: the value for “GCATCAAGACATTCTA (sugars kkdddddddddkekek, PS)” was 43%. Same read-out and setting: the value for TCCACTTGAATTCTGT (sugars k3 d10 k3, PS) was 32%; that for AGGATTAATCATGGGA (sugars k3 d10 k3, PS) was 37%; that for ACATAGGCTTAGTGTA (sugars k3 d10 k3, PS) was 0%. In the case of “TGCTACTTGAACAGTC (sugars kkdddddddddkekek, PS)”, the target mRNA inhibition (1 µM) was 64%. On the same count and under the same terms, the same measure for TCCAATATATACTGAC (sugars k3 d10 k3, PS): 72%. The same measure, in the same setting: the value for CACCTTTCATAATGTA (sugars k3 d10 k3, PS) was 59%; that for CTTACTAAGGAAATTC (sugars k3 d10 k3, PS) was 19%; that for TCTTCACCTGATTTAG (sugars k3 d10 k3, PS) was 24%. Same read-out and setting: the same measure for “TACTUGAACAGTCTTA (sugars k3 d1 m1 d8 k3, PS)”: 38%. In turn, AACTGAGCTAGACAAT (sugars k3 d10 k3, PS) registered a target mRNA inhibition (1 µM) of 44%. “GCATUAATGCCACCCT (sugars k3 d1 m1 d8 k3, PS)”: the target mRNA inhibition (1 µM) is 32%.
